Measurements from ChEMBL document CHEMBL4814040 (Bioorg Med Chem Lett, 2021).

How the values were obtained:
[1] = molecular target: T1, MAO-A (Homo sapiens, UniProt P21397); assay: Inhibition of MAO-A (unknown origin) at 10 uM relative to control
T1 sequence (P21397 whole entry): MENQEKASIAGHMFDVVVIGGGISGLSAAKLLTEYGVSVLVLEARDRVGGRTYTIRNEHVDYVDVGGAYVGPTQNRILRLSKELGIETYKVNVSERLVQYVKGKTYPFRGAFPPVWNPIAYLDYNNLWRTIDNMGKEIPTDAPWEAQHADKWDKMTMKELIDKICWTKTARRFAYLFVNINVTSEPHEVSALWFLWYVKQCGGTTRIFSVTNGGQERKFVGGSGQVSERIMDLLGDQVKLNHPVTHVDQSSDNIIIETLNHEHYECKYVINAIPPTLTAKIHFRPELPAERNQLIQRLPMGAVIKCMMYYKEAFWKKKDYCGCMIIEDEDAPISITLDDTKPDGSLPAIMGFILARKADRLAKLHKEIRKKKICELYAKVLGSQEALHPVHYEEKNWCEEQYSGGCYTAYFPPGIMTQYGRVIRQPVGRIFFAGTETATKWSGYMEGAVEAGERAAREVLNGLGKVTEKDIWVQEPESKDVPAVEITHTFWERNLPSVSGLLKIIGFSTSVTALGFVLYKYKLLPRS

[2] = molecular target: T2, MAO-B (Homo sapiens, UniProt P27338); assay: Inhibition of MAO-B (unknown origin) at 10 uM relative to control
T2 sequence (P27338 whole entry): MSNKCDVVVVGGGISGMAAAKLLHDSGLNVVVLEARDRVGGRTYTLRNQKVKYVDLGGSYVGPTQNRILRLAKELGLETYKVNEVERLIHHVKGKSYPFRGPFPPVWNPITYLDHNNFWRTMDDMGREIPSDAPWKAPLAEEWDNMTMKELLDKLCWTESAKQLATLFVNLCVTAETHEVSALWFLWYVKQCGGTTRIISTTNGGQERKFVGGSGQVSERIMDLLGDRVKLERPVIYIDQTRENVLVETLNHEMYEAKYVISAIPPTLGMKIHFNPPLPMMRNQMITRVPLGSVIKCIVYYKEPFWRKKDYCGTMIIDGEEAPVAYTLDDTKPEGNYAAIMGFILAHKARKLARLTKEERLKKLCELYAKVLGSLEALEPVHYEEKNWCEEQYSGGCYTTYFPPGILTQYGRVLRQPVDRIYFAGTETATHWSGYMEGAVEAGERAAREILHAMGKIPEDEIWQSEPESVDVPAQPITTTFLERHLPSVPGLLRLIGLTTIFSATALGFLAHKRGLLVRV

[3] = system: MCF7; assay: cells; conditions: Homo sapiens, MCF7, read-out: INH
Description: Antiproliferative activity against human MCF7 cells assessed as cell growth inhibition at 16 uM relative to control

[4] = system: PC-3; assay: cells; conditions: Homo sapiens, PC-3, read-out: INH
Description: Antiproliferative activity against human PC-3 cells assessed as cell growth inhibition at 16 uM relative to control

[5] = system: MGC-803; assay: cells; conditions: Homo sapiens, MGC-803, read-out: INH
Description: Antiproliferative activity against human MGC803 cells assessed as cell growth inhibition at 16 uM relative to control

[6] = system: SGC-7901; assay: cells; conditions: Homo sapiens, SGC-7901, read-out: INH
Description: Antiproliferative activity against human SGC7901 cells assessed as cell growth inhibition at 16 uM relative to control

| SMILES | inhibition at 10 µM [1] [%] | inhibition at 10 µM [2] [%] | inhibition at 16 µM [3] [%] | inhibition at 16 µM [4] [%] | inhibition at 16 µM [5] [%] | inhibition at 16 µM [6] [%] |
| --- | --- | --- | --- | --- | --- | --- |
| c1ccc([C@@H]2C[C@H]2NCc2cn(-c3ccccc3)nn2)cc1 | 102 | 76 |  |  |  |  |
| COc1ccc(OC)c(-n2cc(CN[C@@H]3C[C@H]3c3ccccc3)nn2)c1 | 97 | 58 |  |  |  |  |
| COc1cc(OC)cc(-n2cc(CN[C@@H]3C[C@H]3c3ccccc3)nn2)c1 | 101 | 67 |  |  |  |  |
| COc1ccccc1-n1cc(CN[C@@H]2C[C@H]2c2ccc(F)c(F)c2)nn1 | 90 | 51 |  |  |  |  |
| COc1ccc(-n2cc(CN[C@@H]3C[C@H]3c3ccc(F)c(F)c3)nn2)cc1 | 100 | 64 | 37.3 | 25.2 | 16.3 | 42 |
| Fc1ccc([C@@H]2C[C@H]2NCc2cn(-c3cccc(C(F)(F)F)c3)nn2)cc1F | 90 | 43 |  |  |  |  |
| COc1ccc(-n2cc(CN[C@@H]3C[C@H]3c3ccccc3)nn2)cc1 | 99 | 55 |  |  |  |  |
| COc1ccc(OC)c(-n2cc(CN[C@@H]3C[C@H]3c3ccc(F)c(F)c3)nn2)c1 | 89 | 48 | 33.6 | 21.8 | 24.5 | 27.7 |
| Fc1ccc([C@@H]2C[C@H]2NCc2cn(-c3ccc(C(F)(F)F)cc3)nn2)cc1F | 101 | 82 |  |  |  |  |
| COc1cc(OC)cc(-n2cc(CN[C@@H]3C[C@H]3c3ccc(F)c(F)c3)nn2)c1 | 93 | 42 |  |  |  |  |
| FC(F)(F)c1cc(-n2cc(CN[C@@H]3C[C@H]3c3ccccc3)nn2)cc(C(F)(F)F)c1 | 92 | 88 |  |  |  |  |
| FC(F)(F)c1cccc(-n2cc(CN[C@@H]3C[C@H]3c3ccccc3)nn2)c1 | 101 | 94 |  |  |  |  |
| COc1ccccc1-n1cc(CN[C@@H]2C[C@H]2c2ccccc2)nn1 | 91 | 44 |  |  |  |  |
| COc1cccc(-n2cc(CN[C@@H]3C[C@H]3c3ccc(F)c(F)c3)nn2)c1 | 102 | 65 |  |  |  |  |
| COc1cccc(-n2cc(CN[C@@H]3C[C@H]3c3ccccc3)nn2)c1 | 93 | 54 |  |  |  |  |
| Fc1ccc([C@@H]2C[C@H]2NCc2cn(-c3cc(C(F)(F)F)cc(C(F)(F)F)c3)nn2)cc1F | 91 | 35 |  |  |  |  |
| FC(F)(F)c1ccc(-n2cc(CN[C@@H]3C[C@H]3c3ccccc3)nn2)cc1 | 101 | 86 |  |  |  |  |
